Data reported in EP0347843A1, “Vitamine E composition improved in absorption” (Eisai Co., Ltd., priority 1988, dated 1989).
Converted amounts (≈) assume the structure as drawn. Like-named read-outs stand apart in the source and are kept apart here.

Test: physchem
Experimental: It was here determined how much influence a mixture of oleic acid and lecithin would put on the solubility of d-alpha-tocopherol. It was determined with changing ratios of the oleic acid to the lecithine how to dissolve d-alpha-tocopherol in 20 mM solution of bile acid.

solubility: high solubility
solubility (20 mm bile acid solution): 2000 µg/mL (≈ 4.64 mM)
Structure (SMILES): Cc1c(C)c2c(c(C)c1O)CC[C@@](C)(CCC[C@H](C)CCC[C@H](C)CCCC(C)C)O2 [d-alpha-tocopherol]
